Experimental data taken from patent publication US7345056B2, “Bridged N-cyclic sulfonamido inhibitors of gamma secretase” (Elan Pharmaceuticals, Inc., priority 2005, dated 2008).

Each compound was assayed against T1, gamma-secretase (partially purified extract of IMR-32 cell membranes) (Homo sapiens, UniProt P49768) (assay: Gamma-secretase APP enzyme assay (cleavage of MBP-C125 Swe at the Aβ40 site, sandwich ELISA)). Details: MBP-C125swe substrate, IMR-32 membrane extract, 2 h at 37° C., Aβ40 site cleavage product by ELISA; read-out: γAPP (inhibition, IC50).
T1 construct: a partially purified extract of IMR-32 cell membranes as the gamma-secretase enzyme preparation; endogenous in cells; host or cells: IMR-32 cell membranes, partially purified extract
Type: biochemical
Description: The gamma-secretase APP enzyme assay was designed to measure the specific proteolytic cleavage of an APP substrate (MBP-C125 Swe fusion protein) at the Aβ40 site. […] This assay involved two steps beginning with the enzymatic reaction generating a cleavage product that was captured with an immobilized antibody specific for the neo-epitope Aβ40 site. The captured cleavage product was then detected in a sandwich ELISA assay with a biotinylated reporter antibody that is specific to Aβ (17-28). Streptavidin-linked alkaline phosphatase was then added that would generate a fluorescent signal proportional to the amount of cleavage product.
This warmed solution of BigCHAPS(N,N-Bis(3-D-gluconamidopropyl)cholamide) detergent was used to dissolve Brain Extract Type-V (lipid containing a minimum of 40% phosphatidylethanolamine) from Sigma (St. Louis, Mo.) to a concentration of 8 mg/ml. This solution containing BigCHAPS and lipid at 8 mg/ml is then diluted to 0.53 mg/ml lipid with a pre-warmed solution of Hepes and sodium chloride. This final solution containing Hepes buffer, sodium chloride, BigCHAPS detergent and lipid is used to create working solutions of both gamma-secretase (25 Units) and the MBP-C125 substrate (0.05 mg/ml).
Gamma-secretase was then added to a 96-well micro-titre plate and then incubated with various concentrations of inhibitor for 30 minutes at 37° C. MBPC125 substrate was then added to initiate the reaction that would run for two hours at 37° C. The reaction was quenched with the addition of SDS to a final concentration of 0.1% and then 100 μl of the reaction mixture was transferred to a capture ELISA plate and incubated overnight at 4° C. Detection of the cleavage product was performed using a standard sandwich ELISA assay and quantified using a six point standard curve.

Compound | IC50 [nM]
O=S(=O)(c1ccc(Cl)cc1)N1C2CCC1c1cn[nH]c1C2 (stereo not shown) [Example 79, 11-(4-Chloro-benzenesulfonyl)-4,5,11-triaza-tricyclo[6.3.1.0^2,6]undeca-2(6),3-diene] | < 100
CC1c2[nH]ncc2C2CCCC1N2S(=O)(=O)c1ccc(Cl)cc1 (stereo not shown) [Example 11, 12-(4-Chloro-benzenesulfonyl)-7-methyl-4,5,12-triaza-tricyclo[6.3.1.0^2,6]dodeca-2(6),3-diene] | < 100
O=S(=O)(c1ccc(Cl)cc1)N1C2CCCC1c1cnc3cc(-c4ccccc4)nn3c1C2 (stereo not shown) [Example 63, 16-(4-Chloro-benzenesulfonyl)-7-phenyl-4,8,9,16-tetraaza-tetracyclo-[10,3,1,0^2,10,0^5,9]-hexadeca-2(10),3,5,7-tetraene] | 250 to 500
O=S(=O)(c1ccc(Cl)cc1)N1C2CCCC1c1c(C(F)F)n[nH]c1C2 (stereo not shown) [12-(4-Chloro-benzenesulfonyl)-3-difluoromethyl-4,5,12-triaza-tricyclo[6.3.1.0^2,6]dodeca-2(6),3-diene] | < 100
Cc1n[nH]c2c1C1CCCC(C2)N1S(=O)(=O)c1ccc(Cl)cc1 (stereo not shown) [12-(4-Chloro-benzenesulfonyl)-3-methyl-4,5,12-triaza-tricyclo[6.3.1.0^2,6]dodeca-2(6),3-diene] | < 100
N-[12-(4-Chloro-benzenesulfonyl)-4,5,12-triaza-tricyclo[6.3.1.0^2,6]dodeca-2(6),3-dien-7-yl]-acetamide [Example 98] | < 100
O=S(=O)(c1ccc(Cl)cc1)N1C2CCCC1c1c(C(F)(F)F)n[nH]c1C2 (stereo not shown) [Example 82, 12-(4-Chloro-benzenesulfonyl)-3-trifluoromethyl-4,5,12-triaza-tricyclo-[6.3.1.0^2,6]dodeca-2(6),3-diene] | < 100
O=S(=O)(c1ccc(Cl)cc1)N1C2CCCC1c1cnc3c(-c4ccccc4)cnn3c1C2 (stereo not shown) [Example 62, 16-(4-Chloro-benzenesulfonyl)-6-phenyl-4,8,9,16-tetraaza-tetracyclo-[10,3,1,0^2,10,0^5,9]-hexadeca-2(10),3,5,7-tetraene] | 100 to 250
O=S(=O)(c1ccc(Cl)cc1)N1C2CCCC1c1cnn(C3CCCCC3)c1C2 (stereo not shown) [Example 66, 12-(4-Chloro-benzenesulfonyl)-5-cyclohexyl-4,5,12-triaza-tricyclo[6.3.1.0^2,6]dodeca-2(6),3-diene] | 250 to 500
CCC1c2[nH]ncc2C2CCCC1N2S(=O)(=O)c1ccc(Cl)cc1 (stereo not shown) [Example 14, 12-(4-Chloro-benzenesulfonyl)-7-ethyl-4,5,12-triaza-tricyclo[6.3.1.0^2,6]dodeca-2(6),3-diene] | < 100
O=S(=O)(c1ccc(Cl)s1)N1C2CCCC1c1cn[nH]c1C2 (stereo not shown) [Example 8, 12-(5-Chloro-thiophene-2-sulfonyl)-4,5,12-triaza-tricyclo[6.3.1.0^2,6]dodeca-2(6),3-diene] | < 100
Cn1ncc2c1CC1CCCC2N1S(=O)(=O)c1ccc(Cl)cc1 (stereo not shown) [Example 53, 12-(4-Chloro-benzenesulfonyl)-5-methyl-4,5,12-triaza-tricyclo[6.3.1.0^2,6]dodeca-2(6),3-diene] | 250 to 500
O=S(=O)(c1ccc(Cl)cc1)N1C2CCCC1C(O)c1[nH]ncc12 (stereo not shown) [Example 36, 12-(4-Chloro-benzenesulfonyl)-4,5,12-triaza-tricyclo[6.3.1.0^2,6]dodeca-2(6),3-dien-7-ol] | < 100

The remaining lines, values ahead:

IC50 [nM] | Compound
100 to 250 | O=S(=O)(c1ccc(Cl)cc1)N1C2CCCC1c1c(C(F)(F)F)n[nH]c1C2 (stereo not shown) [Example 89, 12-(4-Chloro-benzenesulfonyl)-3-trifluoromethyl-4,5,12-triaza-tricyclo-[6.3.1.0^2,6]dodeca-2(6),3-diene]
< 100 | Nc1n[nH]c2c1C1CCCC(C2)N1S(=O)(=O)c1ccc(Cl)cc1 (stereo not shown) [Example 97, 12-(4-Chloro-benzenesulfonyl)-4,5,12-triaza-tricyclo[6.3.1.0^2,6]dodeca-2(6),3-dien-3-ylamine]
250 to 500 | C=CCOC(=O)n1cc2c(n1)CC1CCCC2N1S(=O)(=O)c1ccc(Cl)cc1 (stereo not shown) [Example 86, 12-(4-Chloro-benzenesulfonyl)-4,5,12-triaza-tricyclo[6.3.1.0^2,6]dodeca-2,5-diene-4-carboxylic acid allyl ester]
< 100 | CC(C)C(=O)n1cc2c(n1)CC1CCCC2N1S(=O)(=O)c1ccc(Cl)cc1 (stereo not shown) [Example 84, 1-[12-(4-Chloro-benzenesulfonyl)-4,5,12-triaza-tricyclo[6.3.1.0^2,6]dodeca-2,5-dien-4-yl]-2-methyl-propan-1-one]
250 to 500 | O=S(=O)(c1ccc(Cl)cc1)N1C2CCCC1c1c(Cl)n[nH]c1C2 (stereo not shown) [Example 91, 3-Chloro-12-(4-chloro-benzenesulfonyl)-4,5,12-triaza-tricyclo[6.3.1.0^2,6]dodeca-2(6),3-diene]
< 100 | CC(=O)n1cc2c(n1)CC1CCCC2N1S(=O)(=O)c1ccc(Cl)cc1 (stereo not shown) [Example 83, 1-[12-(4-Chloro-benzenesulfonyl)-4,5,12-triaza-tricyclo[6.3.1.0^2,6]dodeca-2,5-dien-4-yl]-ethanone]
< 100 | CC(=O)OC(C)(C)C(=O)n1cc2c(n1)CC1CCCC2N1S(=O)(=O)c1ccc(Cl)cc1 (stereo not shown) [Example 85, Acetic acid 2-[12-(4-chloro-benzenesulfonyl)-4,5,12-triaza-tricyclo[6.3.1.0^2,6]dodeca-2,5-dien-4-yl]-1,1-dimethyl-2-oxo-ethyl ester]
< 100 | Nc1n[nH]c2c1C1CCCC(C2)N1S(=O)(=O)c1ccc(Cl)cc1 (stereo not shown) [Example 94, 12-(4-Chloro-benzenesulfonyl)-4,5,12-triaza-tricyclo[6.3.1.0^2,6]dodeca-2(6),3-dien-3-ylamine]
100 to 250 | Nc1ncc2c(n1)CC1CCCC2N1S(=O)(=O)c1ccc(Cl)cc1 (stereo not shown) [Example 87, 13-(4-Chloro-benzenesulfonyl)-4,6,13-triaza-tricyclo[7.3.1.0^2,7]trideca-2(7),3,5-trien-5-ylamine]
